pKi: −log10 of the molar value.
Experiments:
[1] = test system: VTA dopamine neurons; assay: Electrophysiology: spontaneous firing of VTA dopamine neurons in slices; format: cell-based, C57Bl/6J mice; conditions: 100 μM, bath applied 5 min; percentage of baseline
Description: All electrophysiological recordings were performed in slice preparations from C57Bl/6J mice (P21-P30). Briefly, mice were anaesthetized with isoflurane and transcardially perfused with an ice-cold sucrose solution containing (in mM): 50 sucrose, 26.2 NaHCO3, 1.25 glucose, 4.9 MgCl2, 3 kynurenic acid, 0.1 CaCl2, and 1.32 ascorbic acid in bicarbonate-buffered solution (aCSF, described below). Mice were then decapitated and brains were extracted. […] Cells were visualized on an upright microscope using “Dodt-type” gradient contrast infrared optics ([Dodt et al., 2002]) and whole-cell recordings were made using a MultiClamp 700B amplifier (Axon Instruments, Union City, CA, United States). Recording electrodes (3–5 MΩ) were filled with (in mM): 136 potassium-D-gluconate, 4 MgCl2, 1.1 HEPES, 5, EGTA, 10 sodium creatine phosphate, 3.4 Mg-ATP, and 0.1 Na2GTP. […] Spontaneous firing activity was recorded in current-clamp mode. […] Firing data for all neurons was analyzed with the MiniAnalysis program (Synaptosoft) using the same criteria. Drug-induced changes in firing are expressed as a percentage of baseline. Drug effects were calculated by comparing the response during the baseline/pre-drug period to the response 5 min after onset of drug administration. […] We therefore assessed the effects of compound 22 on firing rate of dopamine neurons. […]

[2] = test system: TAAR1-KO mice; assay: Basal locomotor activity in TAAR1-KO mice; format: in vivo; conditions: 5 and 25 mg/kg alone, 60 min
Description: The Taarl^-/- (TAAR1-KO) mice were obtained from Lundbeck ([Wolinsky et al., 2007]). All wild type (WT) and TAAR1-KO mice used for experiments were generated from TAAR1-KO heterozygous mice in a C57BL/6J x 129S1/Sv mixed background. Experimentally naïve mice, of at least 12 weeks of age, were used for all behavioral experiments. The mice were randomly assigned to treatment or control groups, balanced by sex and weight. Locomotor activity was assessed using the automated locomotor analysis monitors (Omnitech Electronics, Columbus, OH, United States). The apparatus included four open field monitors. Each Open Field monitor consisted of sets of 16 light beams arrayed in the horizontal X and Y axes. The hardware detected beams broken by the animal, which allowed the software to determine the location of the mouse in the cage. Total distance covered by mice was used to characterize locomotor activity of the animals. The monitors were divided into four compartments (20 cm × 20 cm). Animals were tested individually for defined periods with 5-min intervals. The mice were first weighed and then placed into the apparatus, allowing for 30 min habituation. […] The locomotor activity was then measured for additional 1 h. […] The locomotor activity was assessed for 60 min following the injection. […]

[3] = biological target: Dopamine Transporter (Homo sapiens, UniProt Q01959); assay: PDSP binding, secondary screen
Chain of Dopamine Transporter (Q01959 whole entry): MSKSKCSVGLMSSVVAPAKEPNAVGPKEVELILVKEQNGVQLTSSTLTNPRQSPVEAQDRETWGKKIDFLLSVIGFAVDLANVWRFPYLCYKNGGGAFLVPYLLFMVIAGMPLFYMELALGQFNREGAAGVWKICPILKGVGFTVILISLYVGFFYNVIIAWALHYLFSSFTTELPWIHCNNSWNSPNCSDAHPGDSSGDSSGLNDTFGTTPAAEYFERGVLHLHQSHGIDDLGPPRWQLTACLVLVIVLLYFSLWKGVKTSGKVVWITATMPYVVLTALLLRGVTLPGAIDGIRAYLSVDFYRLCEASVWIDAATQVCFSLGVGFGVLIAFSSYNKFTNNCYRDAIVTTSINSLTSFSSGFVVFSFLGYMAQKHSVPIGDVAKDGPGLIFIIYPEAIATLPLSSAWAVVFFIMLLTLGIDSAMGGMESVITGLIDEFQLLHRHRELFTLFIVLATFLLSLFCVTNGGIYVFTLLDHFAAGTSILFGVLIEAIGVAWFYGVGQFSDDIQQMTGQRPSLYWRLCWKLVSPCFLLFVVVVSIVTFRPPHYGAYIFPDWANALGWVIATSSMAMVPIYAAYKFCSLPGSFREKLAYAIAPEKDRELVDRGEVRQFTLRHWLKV
Description: (§1) This was achieved through the identification of potential pharmacological targets of compound 22 using the Psychoactive Drug Screening Program (PDSP) at University of North Carolina-Chapel-Hill. PDSP provides a platform for screening novel psychoactive compounds on human proteins expressed in the central nervous system in order to identify their biological target(s) ([Besnard et al., 2012]). Binding studies were done on 47 targets at a single dose of compound 22 (10 μM; Supplementary Table S1). This primary screen yielded a total of 5 hits for compound 22 (Table 2). These hits were the serotonin, dopamine, and norepinephrine transporters, as well as the sigma 1 and sigma 2 receptors.

[4] = biological target: Norepinephrine Transporter (Homo sapiens, UniProt P23975); assay: PDSP binding, secondary screen
Chain of Norepinephrine Transporter (P23975 whole entry): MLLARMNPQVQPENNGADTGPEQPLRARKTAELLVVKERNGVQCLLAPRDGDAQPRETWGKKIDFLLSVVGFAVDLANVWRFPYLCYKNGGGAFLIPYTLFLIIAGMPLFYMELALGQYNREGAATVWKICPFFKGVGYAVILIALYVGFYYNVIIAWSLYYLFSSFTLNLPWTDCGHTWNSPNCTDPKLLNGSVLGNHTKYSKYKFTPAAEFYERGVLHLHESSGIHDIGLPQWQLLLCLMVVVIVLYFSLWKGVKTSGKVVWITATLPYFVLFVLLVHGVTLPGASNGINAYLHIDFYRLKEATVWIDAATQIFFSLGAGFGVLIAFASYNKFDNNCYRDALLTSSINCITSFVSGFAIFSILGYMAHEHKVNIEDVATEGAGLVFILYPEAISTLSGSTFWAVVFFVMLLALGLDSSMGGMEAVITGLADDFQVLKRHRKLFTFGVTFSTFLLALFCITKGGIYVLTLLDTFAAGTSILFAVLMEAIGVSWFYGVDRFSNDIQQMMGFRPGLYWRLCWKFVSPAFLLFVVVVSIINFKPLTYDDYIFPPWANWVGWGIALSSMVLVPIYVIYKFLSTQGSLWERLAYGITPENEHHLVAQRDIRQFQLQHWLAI
Description: as §1

[5] = biological target: Serotonin Transporter (Homo sapiens, UniProt P31645); assay: PDSP binding, secondary screen
Chain of Serotonin Transporter (P31645 whole entry): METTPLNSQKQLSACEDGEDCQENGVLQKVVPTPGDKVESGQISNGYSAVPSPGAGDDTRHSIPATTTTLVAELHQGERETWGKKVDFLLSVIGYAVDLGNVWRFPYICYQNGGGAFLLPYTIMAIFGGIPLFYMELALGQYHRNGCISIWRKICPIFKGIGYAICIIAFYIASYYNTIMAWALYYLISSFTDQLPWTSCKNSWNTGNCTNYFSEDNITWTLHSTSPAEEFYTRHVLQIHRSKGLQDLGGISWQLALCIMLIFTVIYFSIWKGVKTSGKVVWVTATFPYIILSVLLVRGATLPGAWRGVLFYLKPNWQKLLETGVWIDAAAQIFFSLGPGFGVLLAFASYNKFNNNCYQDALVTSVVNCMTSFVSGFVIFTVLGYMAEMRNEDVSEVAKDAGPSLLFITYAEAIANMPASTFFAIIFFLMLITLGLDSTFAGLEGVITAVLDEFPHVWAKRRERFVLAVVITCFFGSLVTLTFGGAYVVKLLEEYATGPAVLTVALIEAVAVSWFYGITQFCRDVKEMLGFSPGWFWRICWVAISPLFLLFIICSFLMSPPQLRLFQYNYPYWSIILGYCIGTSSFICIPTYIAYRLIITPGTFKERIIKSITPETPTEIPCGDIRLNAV
Description: as §1

[6] = test system: AMPA; assay: PDSP binding, primary screen; design: species or system human; conditions: 10 μM
Description: as §1
(§2) Supplemental Table 1. Compound 22 binding studies from PDSP: primary screen for compound 22 and subsequent hits (50% cut-off, hits highlighted in red). The primary screen was performed by PDSP as described previously (Besnard et al., 2012).

[7] = test system: BZP site; assay: PDSP binding, primary screen; design: species or system human; conditions: 10 μM
Description: as §1, §2

[8] = test system: GABAA; assay: PDSP binding, primary screen; design: species or system human; conditions: 10 μM
Description: as §1, §2

[9] = test system: NMDA; assay: PDSP binding, primary screen; design: species or system human; conditions: 10 μM
Description: as §1, §2

[10] = test system: PBR; assay: PDSP binding, primary screen; design: species or system human; conditions: 10 μM
Description: as §1, §2

[11] = test system: Sigma 2; assay: PDSP binding, primary screen; design: species or system human; conditions: 10 μM
Description: as §1, §2

## Clc1ccc(CNCc2ccc(Cn3cncn3)cc2)c(Cl)c1 [compound 22]
[1]
  increase in firing rate of dopaminergic neurons from VTA: 88%
[2]
  effect on basal locomotor activity: did not significantly alter
[3]
  pKi: 5.98
[4]
  pKi: 5.72
[5]
  pKi: 5.74
[6]
  % Inhibition: 13.4%
[7]
  % Inhibition: 1.1%
[8]
  % Inhibition: 5.2%
[9]
  % Inhibition: -1.7%
[10]
  % Inhibition: 23.1%
[11]
  % Inhibition: 78.4%
